pEC50: −log10 of the molar value. Like-named read-outs stand apart in the source and are kept apart here.
Experiments:
PS cells = test: Confocal microscopy of penetration into cellular membranes; type: cell-based, porcine; settings: 10 µM
Method: Confocal microscopy was used to study the penetration of compound 3a into cellular membranes. PS cells were treated with 3a (10 µM) in a µ-Slide 8 Well (IbidiGmbH, Gräfelfing, Germany) in the dark for 60 min at 37 °C. The samples were analyzed for fluorescent signal distribution and intensity using a Leica SP8 confocal microscope (Leica, Wetzlar, Germany) as described previously.

SARS-CoV-2 [1] = test: Virucidal (virus-inactivating) activity, plaque assay; type: cell-based; settings: 10 µM; 120 min pre-incubation in the dark; starting titers 10^4, 10^6 and 10^7 PFU/mL
[2] = Cytotoxicity assay (Cell Counting Kit-8); type: cell-based; settings: African green monkey, Vero cells, confluent monolayer; 48 h at 37 °C in the dark; compounds 0–10 µM
Method: Vero cells were cultured for 24 h in 96-well plates to form a confluent monolayer, and then were treated with the tested compounds at concentrations of 0–10 µM. After 48 h of cultivation in the dark at 37 °C under 5% CO2, the cell culture medium was aspirated. The potential cytotoxicity of the tested derivatives was determined based on cell viability using Cell Counting Kit-8 (Dojindo Molecular Technologies, Munich, Germany) according to the manufacturer’s instructions (Figure 5A).

FIPV [3] = test: Anti-FIPV activity in CRFK cells (plaque assay); type: cell-based, feline infectious peritonitis virus; settings: Alphacoronavirus 1, normal lighting (preparation in daylight, cultivation in the dark)
[4] = Cytotoxicity to CRFK cells under normal lighting; type: cell-based; settings: cat (Felis catus), CRFK cells (kidney cortex), confluent monolayer
Method: Furthermore, we investigated the mechanism of antiviral activity of perylenylethynylphenols using FIPV, another member of the Coronaviridae family, which is an important veterinary pathogen.
To determine the light-induced cytotoxicity of the compounds, CRFK cells were cultured in 96-well plates for 24 h to form a confluent monolayer and then treated with the tested compounds at concentrations ranging from 0 to 10 µM in daylight. Subsequently, cells treated with the compounds were irradiated with LEDs (465–480 nm, 30 mW/cm^2) for 10 min at RT (Figure 7A, top panel). As a negative control, CRFK cells were treated with the compounds in daylight and then incubated in the dark at RT for 10 min (Figure 7A, bottom panel). Subsequently, both irradiated and non-irradiated cell monolayers were incubated for 48 h in the dark at 37 °C. After incubation, the potential photocytotoxicity of the compounds was determined using Cell Counting Kit-8 (Dojindo Molecular Technologies, Munich, Germany) according to the manufacturer’s instructions.

SARS-CoV-2 [5] = test: Virus titer reduction assay; type: cell-based; settings: for SI: SARS-CoV-2 EC50 and Vero cells CC50; for EC50 / pEC50: Severe acute respiratory syndrome coronavirus 2; for EC50: SARS-CoV-2 in Vero cells, normalized log-transformed response, read-out: App. EC50, calculated from log-transformed viral titers (converted); for pEC50: Vero cells, MOI 0.1, 48 h p.i., normal lighting, 50% reduction in viral titer, read-out: SARS-CoV-2 EC50
[6] = Singlet oxygen generation quantum yield (SOSG fluorescence); type: physicochemical; settings: in methanol, illumination 430–450 nm, 5.5 mW/cm^2, reference PS C1T11
Method: The ROS generation rate was estimated using the spectrofluorimetric method, based on the fluorescense changes of Singlet Oxigen Sensor Green (SOSG®, Lumiprobe, Cockeysville, MD, USA) in methanol solution. Oxidation of SOSG by singlet oxygen results in peroxide formation enhancing SOSG fluorescence.
Spectrophotometric measurements were performed in a Qpod 2e thermostated cuvette holder (Quantum Northwest, Liberty Lake, WA, USA) at 25 °C and with magnetic stirring (500 rpm). Absorption spectra were recorded using a MayaPro spectrophotometer (Ocean Optics, Orlando, FL, USA) and a stabilized white light source with a SLS201L tungsten lamp (Thorlabs, Newton, NJ, USA). The fluorescence of SOSG was measured with a Flame CCD spectrometer (Ocean Optics, Orlando, FL, USA) in StripChart mode (530 nm), excitation of the SOSG fluorescence was carried out with a PLS-510 LED laser (InTop, St. Petersburg, Russia) in CW mode at the wavelength of 510 nm.
To study photosensitized ^1O2 generation, we used a white MCWHLP1 LED (Thorlabs, USA) with filters to limit the radiation to the 430–450 nm range (5.5 mW/cm^2). Illumination was uniform over the entire volume of the cuvette, to prevent artifacts associated with the diffusion of non-reacted components from entering into the illuminated volume of the cuvette. Illumination was performed in pulsed mode, with 1 s of illumination followed by 5 s of dark adaptation, during which the fluorescence spectrum of the photosensitizer-SOSG solution was recorded.
Singlet oxygen generation quantum yield for compounds 3a–3f in methanol was calculated according to Equation (1):(1) φΔ=φΔ0∗r/r^0(1−10^−A^0)/(1−10^−A), where r is the rate of SOSG fluorescence increase in solution of the photosensitizer (PS), A is the PS absorbance in the region of illumination, and index 0 represents reference PS (we used perylene compound C1T11 [65] with φΔ0=0.59 in methanol).

FIPV [7] = test: Photodynamic inactivation of FIPV virions; type: cell-based, feline infectious peritonitis virus
Method: Considering that perylenylethynylphenols are potent ^1O2 photogenerators, we investigated their coronavirus inactivation activity after the irradiation of compound-pretreated FIPV with blue light (465–480 nm, with an approximate power density of 30 mW/cm^2; note: the 465–480 nm wavelength is close to the excitation maxima of perylenylethynylphenols). In this experiment, (i) compound 3a and the virus were mixed in daylight and irradiated with blue light for 10 min (Figure 7D, top panel), or (ii) the compound and virus were mixed in daylight and incubated in the dark for 10 min (Figure 7D, medium panel). Then, both samples (irradiated and non-irradiated) were incubated for 1 h at 37 °C in the dark, and the viability of FIPV was determined by a plaque assay. […] We speculate that the observed enhancement of antiviral (virus inactivation) activity of 3a is due to increased ^1O2 photogeneration during sample irradiation.
To completely eliminate the influence of daylight on the anti-FIPV activity of perylenylethynylphenols, we performed a parallel experiment in a dark room. In this experiment, all manipulations, including sample preparation and plaque assays, were performed under red light (624 ± 20 nm) (Figure 7D, bottom panel).
Virus in DMEM (titer of 10^6 PFU/mL) was mixed with 3a (0–10 µM) in a microtiter plate in daylight and irradiated for 10 min at RT with LEDs (465–480 nm) at an approximate power density of 30 mW/cm^2 (Figure 7D, top panel). As a negative control, the virus was mixed with 3a (0–10 µM) in daylight and incubated with the compound for 10 min in the dark at RT (Figure 7D, middle panel). Subsequently, both irradiated and non-irradiated virus samples were incubated in the dark at 37 °C for an additional 60 min. Viral titers were determined by plaque assays (also in daylight). […] The virus sample was mixed with 3a (0–10 µM), incubated at 37 °C for 60 min, and the viability of the virus was assessed by plaque assays (Figure 7D, bottom panel). […]

[8] = Interaction with liposomes (steady-state fluorescence); type: physicochemical; settings: 10 µM in PBS; 520 nm; after the complete incubation period (3500 s)
Method: The affinity of 3a to lipid membranes was further confirmed using a liposomal (protein-free) membrane model system (Figure 6D,E). […] The kinetics of liposome penetration of 3a were measured as the steady-state fluorescence response at 520 nm, which reached maximal intensity of about 4 × 10^5 CPE after the complete incubation period (3500 s) (Figure 6E).
The samples’ steady-state fluorescence characteristics were measured in L-format using a Chronos DFD Fluorescence spectrometer (ISS, Baltimore, MD, USA) equipped with a 300 W Cermax xenon arc lamp (ISS, Baltimore, MD, USA), a concave holographic grating monochromator, and a PMT detector. The required amount of each sample was diluted in DMSO and measured in a 1-cm quartz cuvette, at a constant temperature of 25 °C. The resulting data were evaluated using Vinci software version 2 (ISS, Baltimore, MD, USA) and correlated to the utilized optical configuration.
The kinetics of the incorporation of compounds into liposome membrane models were determined using steady-state fluorescence spectroscopy at a constant excitation and emission wavelength, according to the corresponding sample excitation and emission maxima. We added 50 μL of LNP suspension to 10 µM of the analyte in PBS and monitored the increase in fluorescence intensity over the time range […].

[9] = Light-induced cytotoxicity (photocytotoxicity); type: cell-based; settings: cat (Felis catus), CRFK cells, confluent monolayer; blue light 465–480 nm, 30 mW/cm^2, 10 min; then 48 h incubation; read-out: Cell viability of irradiated CRFK cells
[10] = set-up: method as in PMID 37339718; settings: in methanol; cited from earlier work

| SMILES | Cytotoxicity or morphological abnormalities in PS cells (PS cells) | Decrease in SARS-CoV-2 viral titer compared with control (SARS-CoV-2 [1]) | CC50 at 48 h [2] [nM] | pEC50 (FIPV [3]) | CC50 at 48 h [4] [nM] | SI (SARS-CoV-2 [5]) | EC50 (SARS-CoV-2 [5]) [nM] | pEC50 (SARS-CoV-2 [5]) | ϕΔ(1O2), singlet oxygen generation quantum yield [6] | anti-FIPV activity under red light (FIPV [7]; dark room, all manipulations under red light (624 ± 20 nm), up to 10 µM) | anti-FIPV (virus inactivation) activity after blue-light irradiation (FIPV [7]; mixed in daylight, blue light 465–480 nm, 30 mW/cm^2, 10 min, versus non-irradiated sample) | FIPV-inactivation activity in the non-irradiated sample (FIPV [7]; mixed in daylight, incubated in the dark 10 min, then 1 h at 37 °C) | Maximal steady-state fluorescence intensity on liposome penetration [8] | viability at 48 h [9] [%] | φΔ0, singlet oxygen generation quantum yield of the reference PS [10] |
| --- | --- | --- | --- | --- | --- | --- | --- | --- | --- | --- | --- | --- | --- | --- | --- |
| Oc1ccc(C#Cc2ccc3c4cccc5cccc(c6cccc2c63)c54)cc1 [Compound 3a, 4-(Perylen-3-ylethynyl)phenol] | no signs of cytotoxicity or morphological abnormalities | more than two orders of magnitude | > 10000 | 6.71 | > 10000 | >83 | 1790 | 6.92 | 0.422 | completely disappeared | significant increase in anti-FIPV activity | some FIPV-inactivation activity | about 4 × 10^5 CPE |  |  |
| Oc1ccc(C#Cc2cc3cccc4c5cccc6cccc(c(c2)c34)c65)cc1 [Compound 3d, 4-(Perylen-2-ylethynyl)phenol] |  |  | > 10000 |  |  | >16 | 2220 | 6.21 | 0.297 |  |  |  |  |  |  |
| Oc1cccc(C#Cc2cc3cccc4c5cccc6cccc(c(c2)c34)c65)c1 [Compound 3e, 3-(Perylen-2-ylethynyl)phenol] |  |  | > 10000 |  |  | >29 | 1580 | 6.46 | 0.460 |  |  |  |  | > 100 |  |
| O=C(O)c1ccc(-c2ccc3c4cccc5cccc(c6cccc2c63)c54)s1 [Compound C1T11] |  |  |  |  |  |  |  |  |  |  |  |  |  |  | 0.59 |
| Oc1ccc(C#Cc2cc3cccc4c5cccc6cccc(c(c2)c34)c65)cc1Br [Compound 3f, 4-(Perylen-2-ylethynyl)-2-bromophenol] |  |  | > 10000 |  |  | >19 | 2680 | 6.28 | 0.332 |  |  |  |  |  |  |
| Oc1cccc(C#Cc2ccc3c4cccc5cccc(c6cccc2c63)c54)c1 [Compound 3b, 3-(Perylen-3-ylethynyl)phenol] |  |  | > 10000 |  |  | >196 | 506 | 7.29 | 0.451 |  |  |  |  | > 100 |  |
| Oc1ccc(C#Cc2ccc3c4cccc5cccc(c6cccc2c63)c54)cc1Br [Compound 3c, 4-(Perylen-3-ylethynyl)-2-bromophenol] |  |  | > 10000 |  |  | >44 | 1100 | 6.64 | 0.282 |  |  |  |  |  |  |

From paper PMC10488391, “Membrane-Targeting Perylenylethynylphenols Inactivate Medically Important Coronaviruses via the Singlet Oxygen Photogeneration Mechanism” (Molecules, 2023)
